ChEMBL document CHEMBL4043279 (Bioorg Med Chem Lett, 2017)

Experiments:
PBMC = test: Antiproliferative activity against human PBMC treated for 24 hrs measured after 72 hrs by MTT assay; type: cell-based
PC-3 = test: Antiproliferative activity against human PC3 cells treated for 24 hrs measured after 72 hrs by MTT assay; type: functional, cell-based
HL-60 = test: Antiproliferative activity against human HL60 cells treated for 24 hrs measured after 72 hrs by MTT assay; type: functional, cell-based
HepG2 = test: Antiproliferative activity against human HepG2 cells treated for 24 hrs measured after 72 hrs by MTT assay; type: functional, cell-based
THP-1 = test: Antiproliferative activity against human THP1 cells treated for 24 hrs measured after 72 hrs by MTT assay; type: functional, cell-based

| SMILES | IC50 (PBMC) | IC50 (PC-3) | IC50 (HL-60) | IC50 (HepG2) | IC50 (THP-1) |
| --- | --- | --- | --- | --- | --- |
| CN1c2ccccc2C(=O)N2CCc3c(n(CCCOCCCO)c4ccccc34)C21 (stereo not given) | > 200 µM | 19.9 µM | 5.31 µM | > 100 µM | 8.42 µM |
| CN1c2ccccc2C(=O)N2CCc3c(n(CCCCCCOC(=O)c4ccc(N(CCCl)CCCl)cc4)c4ccccc34)C21 (stereo not given) | > 200 µM | > 100 µM | 23.5 µM | > 100 µM | 3.92 µM |
| O=C(O)CCCc1ccc(N(CCCl)CCCl)cc1 [CHLORAMBUCIL] | > 200 µM | 42.1 µM | 12.9 µM | > 100 µM | 5.3 µM |
| COC(=O)[C@H](Cc1ccc(N(CCCl)CCCl)cc1)NC(=O)CCC(=O)OCCCn1c2c(c3ccccc31)CCN1C(=O)c3ccccc3N(C)C21 (stereo not given in full) | > 200 µM | > 100 µM | 1.12 µM | > 100 µM | 2.37 µM |
| CN1c2ccccc2C(=O)N2CCc3c(n(CCCOC(=O)CCCc4ccc(N(CCCl)CCCl)cc4)c4ccccc34)C21 (stereo not given) | > 200 µM | > 100 µM | 4.3 µM | > 100 µM | 5.68 µM |
| CN1c2ccccc2C(=O)N2CCc3c(n(CCCOC(=O)c4ccc(N(CCCl)CCCl)cc4)c4ccccc34)C21 (stereo not given) | > 200 µM | > 100 µM | 30.9 µM | > 100 µM | 6.6 µM |
| CN1c2ccccc2C(=O)N2CCc3c(n(CCCOCCCOC(=O)c4ccc(N(CCCl)CCCl)cc4)c4ccccc34)C21 (stereo not given) | > 200 µM | > 100 µM | 22.3 µM | > 100 µM | 9.29 µM |
| COC(=O)[C@H](Cc1ccc(N(CCCl)CCCl)cc1)NC(=O)CCC(=O)O | > 200 µM | > 100 µM | 5.34 µM | 13.8 µM | 3.84 µM |
| CN1c2ccccc2C(=O)N2CCc3c(n(CCO)c4ccccc34)C21 (stereo not given) | > 200 µM | 12.3 µM | 7.1 µM | > 100 µM | 1.64 µM |
| CN1c2ccccc2C(=O)N2CCc3c(n(CCOC(=O)CCCc4ccc(N(CCCl)CCCl)cc4)c4ccccc34)C21 (stereo not given) | > 200 µM | 45.7 µM | 11.3 µM | > 100 µM | 4.82 µM |
